From PMC6271338, “Synthesis and Cytotoxic Evaluation of Alkoxylated Chalcones” (Molecules, 2014)

Legend:
HeLa cells = assay: In vitro anti-proliferative SRB assay, HeLa; type: cell-based, human; conditions: for IC50: Homo sapiens, HeLa, increasing concentrations up to 30 μM, mean ± SD of at least three independent experiments; for SI (CC50 HMLE/IC50 Hela) / SI (CC50 L02/IC50 Hela): selectivity index; for SI (CC50 HMLE/IC50 Hela): HMLE vs HeLa; for SI (CC50 L02/IC50 Hela): L02 vs HeLa
Procedure: (§1) HepG2 and MCF7 cells were grown in the Eagle’s minimum essential medium with Earle’s balanced salts (MEM-EBSS) medium, HeLa, A549 and L02 cells were grown in Dulbecco’s Modified Eagle Media (DMEM), SW1990 cells were grown in RPMI-1640 medium, and HMLE cell were grown in DMEM/F-12 medium. […]
(§2) Cells were seeded into 96-well plates (4000 cells/well) and incubated at 37 °C in a humidified 5% CO2 atmosphere. After 24 h, the cells were treated with different concentrations of the compounds for 48 h in triplicate to generate dose-response curves. Cell viability was evaluated using the sulforhodamine B (SRB) assay as previous described.

[1] = Cytotoxicity (SRB) against non-tumoral HMLE cells; type: cell-based, human; conditions: human, HMLE cells (non-tumoral human mammary epithelial cells); increasing concentrations up to 100 μM; mean ± SD of at least three independent experiments; read-out: Normal Human Cell Lines, CC50, HMLE
Procedure: (§3) All compounds were also evaluated for their cytotoxic activity against two non-tumoral human cell lines named human mammary epithelial cell (HMLE) and L02 (a human liver cell line) in Table 2 and SI values between the CC50 in non-tumoral cell lines and IC50 in tumoral cells calculated.
as §1
as §2, with “described. […] Etoposide was used as the positive control.” for “described.”

HepG2 cells = assay: In vitro anti-proliferative SRB assay, HepG2; type: cell-based, human; conditions: for IC50: Homo sapiens, HepG2, increasing concentrations up to 30 μM, mean ± SD of at least three independent experiments; for SI (CC50 HMLE/IC50 HepG2) / SI (CC50 L02/IC50 HepG2): selectivity index; for SI (CC50 HMLE/IC50 HepG2): HMLE vs HepG2; for SI (CC50 L02/IC50 HepG2): L02 vs HepG2
Procedure: as §1, §2

MCF-7 cells = assay: In vitro anti-proliferative SRB assay, MCF-7; type: cell-based, human; conditions: for IC50: Homo sapiens, MCF7, increasing concentrations up to 30 μM, mean ± SD of at least three independent experiments; for SI (CC50 HMLE/IC50 MCF7) / SI (CC50 L02/IC50 MCF7): selectivity index; for SI (CC50 HMLE/IC50 MCF7): HMLE vs MCF7; for SI (CC50 L02/IC50 MCF7): L02 vs MCF7
Procedure: as §1, §2

[2] = Cytotoxicity (SRB) against non-tumoral L02 cells; type: cell-based, human; conditions: human, L02 cells (non-tumoral human liver cell line); increasing concentrations up to 100 μM; mean ± SD of at least three independent experiments; read-out: Normal Human Cell Lines, CC50, L02
Procedure: as §3, §1
as §2, with “described. […] Etoposide was used as the positive control.” for “described.”

SW1990 cells = assay: In vitro anti-proliferative SRB assay, SW1990; type: cell-based, human; conditions: for IC50: Homo sapiens, SW1990, increasing concentrations up to 30 μM, mean ± SD of at least three independent experiments; for SI (CC50 HMLE/IC50 SW1990) / SI (CC50 L02/IC50 SW1990): selectivity index; for SI (CC50 HMLE/IC50 SW1990): HMLE vs SW1990; for SI (CC50 L02/IC50 SW1990): L02 vs SW1990
Procedure: as §1, §2

A549 cells = assay: In vitro anti-proliferative SRB assay, A549; type: cell-based, human; conditions: for IC50: Homo sapiens, A549, increasing concentrations up to 30 μM, mean ± SD of at least three independent experiments; for SI (CC50 HMLE/IC50 A549) / SI (CC50 L02/IC50 A549): selectivity index; for SI (CC50 HMLE/IC50 A549): HMLE vs A549; for SI (CC50 L02/IC50 A549): L02 vs A549
Procedure: as §1, §2

| Structure (SMILES) | IC50 (HeLa cells) | CC50 at 48 h [1] | IC50 (HepG2 cells) | SI (CC50 HMLE/IC50 HepG2) (HepG2 cells) | SI (CC50 L02/IC50 HepG2) (HepG2 cells) | IC50 (MCF-7 cells) | CC50 at 48 h [2] | IC50 (SW1990 cells) | melting point | IC50 (A549 cells) | SI (CC50 HMLE/IC50 Hela) (HeLa cells) | SI (CC50 L02/IC50 Hela) (HeLa cells) | SI (CC50 HMLE/IC50 MCF7) (MCF-7 cells) | SI (CC50 L02/IC50 MCF7) (MCF-7 cells) | SI (CC50 HMLE/IC50 SW1990) (SW1990 cells) | SI (CC50 HMLE/IC50 A549) (A549 cells) | SI (CC50 L02/IC50 SW1990) (SW1990 cells) | SI (CC50 L02/IC50 A549) (A549 cells) |
| --- | --- | --- | --- | --- | --- | --- | --- | --- | --- | --- | --- | --- | --- | --- | --- | --- | --- | --- |
| COc1cccc(OC)c1/C=C/C(=O)c1ccc(OCc2ccccc2)cc1 [b13, (E)-1-(4-(Benzyloxy)phenyl)-3-(2,6-dimethoxyphenyl)prop-2-en-1-one] | > 30 µM | > 100 µM | 21.8 ± 0.62 µM | >4.6 | >4.6 | > 30 µM | > 100 µM | > 30 µM | 96.6 to 97.8 °C | > 30 µM | – | – | – | – | – | – | – | – |
| COc1cccc(OC)c1/C=C/C(=O)c1cccc(OCc2ccccc2)c1 [b12, (E)-1-(3-(Benzyloxy)phenyl)-3-(2,6-dimethoxyphenyl)prop-2-en-1-one] | 25.6 ± 1.16 µM | 31.4 ± 1.12 µM | 23.6 ± 0.84 µM | 1.3 | >4.2 | 29.03 ± 0.09 µM | > 100 µM | 22.3 ± 0.07 µM | 108.8 to 110.2 °C | 13.25 ± 0.02 µM | 1.2 | >3.9 | 1.1 | >3.4 | 1.4 | 2.4 | – | – |
| COc1cccc(OC)c1/C=C/C(=O)c1cccc(Br)c1 [b36, (E)-1-(3-Bromophenyl)-3-(2,6-dimethoxyphenyl)prop-2-en-1-one] | 13.4 ± 0.44 µM | 13.1 ± 1.21 µM | 11.3 ± 1.45 µM | 1.2 | 5.4 | 23.3 ± 0.79 µM | 61.2 ± 12.1 µM | 17.1 ± 0.57 µM | 135.7 to 138.2 °C | 25 ± 3.17 µM | 1.0 | 4.6 | 0.6 | 2.6 | 0.8 | 0.5 | 3.6 | 2.4 |
| COc1ccc(C(=O)/C=C/c2c(OC)cccc2OC)c(OCc2ccccc2)c1 [b14, (E)-1-(2-(Benzyloxy)-4-methoxyphenyl)-3-(2,6-dimethoxyphenyl)prop-2-en-1-one] | > 30 µM | > 100 µM | > 30 µM | – | – | > 30 µM | > 100 µM | > 30 µM | 82.2 to 83.6 °C | > 30 µM | – | – | – | – | – | – | – | – |
| CCOc1cc(OC)ccc1C(=O)/C=C/c1c(OC)cccc1OC [b17, (E)-1-(2-Ethoxy-4-methoxyphenyl)-3-(2,6-dimethoxyphenyl)prop-2-en-1-one] | 8.54 ± 0.14 µM | 9.03 ± 0.8 µM | 12 ± 0.23 µM | 0.8 | 0.9 | 7.74 ± 0.1 µM | 10.9 ± 0.42 µM | – | 98.7 to 100.2 °C | 9.33 ± 0.3 µM | 1.1 | 1.3 | 1.2 | 1.4 | 0.8 | 1.0 | 1.0 | 1.2 |
| COc1cccc(OC)c1/C=C/C(=O)c1ccc(F)cc1 [b33, (E)-1-(4-Fluorophenyl)-3-(2,6-dimethoxyphenyl)prop-2-en-1-one] | 17.4 ± 0.39 µM | 12.7 ± 2.35 µM | 24.6 ± 0.36 µM | 0.5 | 2.6 | 32.2 ± 1.34 µM | 63.9 ± 13.8 µM | > 30 µM | 108.2 to 109.6 °C | > 30 µM | 0.7 | 3.7 | 0.4 | 2.0 | <0.4 | <0.4 | <2.1 | <2.1 |
